Source: the supplement of paper PMC10307832

Key:
Assay in all cases: relative viability (nuclei count vs DMSO), 5 days (fraction); higher = more cells survive
NCI-H358 = system: NCI-H358
Procedure, shortened: (§1)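 Values are medians from duplicate plates. Each reflects relative viability, defined as the nuclei count of treated wells over that of vehicle wells. Lung cancer cell lines in 1536-well plates were pin-tool dosed one day after seeding with one drug alone or with a fixed anchor-drug dose plus five library-drug doses (not always all listed) in √10 steps, then fixed, stained and imaged at 4× after 5 days.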

COR-L23 = system: COR-L23
Procedure, shortened: as §1

NCI-H2342 = system: NCI-H2342
Procedure, shortened: as §1

NCI-H1734 = system: NCI-H1734
Procedure, shortened: as §1

SK-LU-1 = system: SK-LU-1
Procedure, shortened: as §1

BEN = system: BEN
Procedure, shortened: as §1

NCI-H441 = system: NCI-H441
Procedure, shortened: as §1

NCI-H1437 = system: NCI-H1437
Procedure, shortened: as §1

NCI-H1651 = system: NCI-H1651
Procedure, shortened: as §1

HCC-366 = system: HCC-366
Procedure, shortened: as §1

NCI-H460 = system: NCI-H460
Procedure, shortened: as §1

NCI-H1563 = system: NCI-H1563
Procedure, shortened: as §1

NCI-H838 = system: NCI-H838
Procedure, shortened: as §1

LOU-NH91 = system: LOU-NH91
Procedure, shortened: as §1

NCI-H1793 = system: NCI-H1793
Procedure, shortened: as §1

NCI-H2085 = system: NCI-H2085
Procedure, shortened: as §1

NCI-H1355 = system: NCI-H1355
Procedure, shortened: as §1

NCI-H1650 = system: NCI-H1650
Procedure, shortened: as §1

NCI-H2023 = system: NCI-H2023
Procedure, shortened: as §1

NCI-H1975 = system: NCI-H1975
Procedure, shortened: as §1

CAL-12T = system: CAL-12T
Procedure, shortened: as §1

LU99A = system: LU99A
Procedure, shortened: as §1

In the case of `COc1nc(C)cnc1NS(=O)(=O)c1cccnc1-c1ccc(-c2nnco2)cc1` [Zibotentan] + Cc1nc(Nc2ncc(C(=O)Nc3c(C)cccc3Cl)s2)cc(N2CCN(CCO)CC2)n1 [Dasatinib] (partner 0.075 µM), the relative viability (NCI-H358; first compound 0.08 µM) is reported as 0.175, the relative viability (NCI-H358; first compound 0.253 µM) is reported as 0.152 and the relative viability (NCI-H358; first compound 0.8 µM) is reported as 0.151. It also gave a relative viability (NCI-H358; first compound 2.53 µM) of 0.166, a relative viability (COR-L23; first compound 0.08 µM) of 0.502 and a relative viability (COR-L23; first compound 0.253 µM) of 0.485. It also gave a relative viability (COR-L23; first compound 0.8 µM) of 0.488, a relative viability (COR-L23; first compound 2.53 µM) of 0.5 and a relative viability (NCI-H2342; first compound 0.08 µM) of 0.354. For the same compound, the relative viability (NCI-H2342; first compound 0.253 µM) was 0.308, the relative viability (NCI-H2342; first compound 0.8 µM) was 0.309 and the relative viability (NCI-H2342; first compound 2.53 µM) was 0.314. It also gave a relative viability (NCI-H1734; first compound 0.08 µM) of 0.484, a relative viability (NCI-H1734; first compound 0.253 µM) of 0.42 and a relative viability (NCI-H1734; first compound 0.8 µM) of 0.487. The relative viability (NCI-H1734; first compound 2.53 µM) was 0.564, the relative viability (SK-LU-1; first compound 0.08 µM) was 0.17 and the relative viability (SK-LU-1; first compound 0.253 µM) was 0.172. For the same compound, the relative viability (SK-LU-1; first compound 0.8 µM) was 0.189, the relative viability (SK-LU-1; first compound 2.53 µM) was 0.198 and the relative viability (BEN; first compound 0.08 µM) was 0.289. The relative viability (BEN; first compound 0.253 µM) was 0.32, the relative viability (BEN; first compound 0.8 µM) was 0.316 and the relative viability (BEN; first compound 2.53 µM) was 0.353. For the same compound, the relative viability (NCI-H441; first compound 0.08 µM) was 0.715, the relative viability (NCI-H441; first compound 0.253 µM) was 0.476 and the relative viability (NCI-H441; first compound 0.8 µM) was 0.679. The relative viability (NCI-H441; first compound 2.53 µM) was 0.677, the relative viability (NCI-H1437; first compound 0.08 µM) was 0.408 and the relative viability (NCI-H1437; first compound 0.253 µM) was 0.292. It also gave a relative viability (NCI-H1437; first compound 0.8 µM) of 0.283, a relative viability (NCI-H1437; first compound 2.53 µM) of 0.428 and a relative viability (NCI-H1651; first compound 0.08 µM) of 0.462. It also gave a relative viability (NCI-H1651; first compound 0.253 µM) of 0.318, a relative viability (NCI-H1651; first compound 0.8 µM) of 0.445 and a relative viability (NCI-H1651; first compound 2.53 µM) of 0.451. The relative viability (HCC-366; first compound 0.08 µM) was 0.73, the relative viability (HCC-366; first compound 0.253 µM) was 0.584 and the relative viability (HCC-366; first compound 0.8 µM) was 0.359. For the same compound, the relative viability (HCC-366; first compound 2.53 µM) was 0.652, the relative viability (NCI-H460; first compound 0.08 µM) was 0.559 and the relative viability (NCI-H460; first compound 0.253 µM) was 0.391. For the same compound, the relative viability (NCI-H460; first compound 0.8 µM) was 0.504, the relative viability (NCI-H460; first compound 2.53 µM) was 0.602 and the relative viability (NCI-H1563; first compound 0.08 µM) was 0.493. For the same compound, the relative viability (NCI-H1563; first compound 0.253 µM) was 0.435, the relative viability (NCI-H1563; first compound 0.8 µM) was 0.476 and the relative viability (NCI-H1563; first compound 2.53 µM) was 0.397. It also gave a relative viability (NCI-H838; first compound 0.08 µM) of 0.28, a relative viability (NCI-H838; first compound 0.253 µM) of 0.233 and a relative viability (NCI-H838; first compound 0.8 µM) of 0.283. It also gave a relative viability (NCI-H838; first compound 2.53 µM) of 0.305, a relative viability (LOU-NH91; first compound 0.08 µM) of 0.577 and a relative viability (LOU-NH91; first compound 0.253 µM) of 0.485. It also gave a relative viability (LOU-NH91; first compound 0.8 µM) of 0.539, a relative viability (LOU-NH91; first compound 2.53 µM) of 0.577 and a relative viability (NCI-H1793; first compound 0.08 µM) of 0.345. For the same compound, the relative viability (NCI-H1793; first compound 0.253 µM) was 0.363, the relative viability (NCI-H1793; first compound 0.8 µM) was 0.406 and the relative viability (NCI-H1793; first compound 2.53 µM) was 0.379. For the same compound, the relative viability (NCI-H2085; first compound 0.08 µM) was 0.24, the relative viability (NCI-H2085; first compound 0.253 µM) was 0.227 and the relative viability (NCI-H2085; first compound 0.8 µM) was 0.211. It also gave a relative viability (NCI-H2085; first compound 2.53 µM) of 0.213, a relative viability (NCI-H1355; first compound 0.08 µM) of 0.691 and a relative viability (NCI-H1355; first compound 0.253 µM) of 0.743. For the same compound, the relative viability (NCI-H1355; first compound 0.8 µM) was 0.718, the relative viability (NCI-H1355; first compound 2.53 µM) was 0.832 and the relative viability (NCI-H1650; first compound 0.08 µM) was 0.35. It also gave a relative viability (NCI-H1650; first compound 0.8 µM) of 0.27, a relative viability (NCI-H1650; first compound 2.53 µM) of 0.4 and a relative viability (NCI-H2023; first compound 0.08 µM) of 0.568. It also gave a relative viability (NCI-H2023; first compound 0.253 µM) of 0.339, a relative viability (NCI-H2023; first compound 0.8 µM) of 0.476 and a relative viability (NCI-H2023; first compound 2.53 µM) of 0.64. The relative viability (NCI-H1975; first compound 0.08 µM) was 0.378, the relative viability (NCI-H1975; first compound 0.253 µM) was 0.341 and the relative viability (NCI-H1975; first compound 0.8 µM) was 0.307. The relative viability (NCI-H1975; first compound 2.53 µM) was 0.376, the relative viability (CAL-12T; first compound 0.08 µM) was 0.484 and the relative viability (CAL-12T; first compound 0.253 µM) was 0.473. For the same compound, the relative viability (CAL-12T; first compound 0.8 µM) was 0.34, the relative viability (CAL-12T; first compound 2.53 µM) was 0.479 and the relative viability (LU99A; first compound 0.08 µM) was 0.712. The relative viability (LU99A; first compound 0.253 µM) was 0.694, the relative viability (LU99A; first compound 0.8 µM) was 0.596 and the relative viability (LU99A; first compound 2.53 µM) was 0.487.
